One may read the IC50 as the point on the concentration scale where inhibition reaches its midpoint.

SMILES strings stand for the structures.

In the first assay the target is BTK (Homo sapiens (Human), UniProt Q06187). In words: In vitro BTK kinase assay: BTK-POLYGAT-LS ASSAY.
BTK, sequence (Q06187 whole entry): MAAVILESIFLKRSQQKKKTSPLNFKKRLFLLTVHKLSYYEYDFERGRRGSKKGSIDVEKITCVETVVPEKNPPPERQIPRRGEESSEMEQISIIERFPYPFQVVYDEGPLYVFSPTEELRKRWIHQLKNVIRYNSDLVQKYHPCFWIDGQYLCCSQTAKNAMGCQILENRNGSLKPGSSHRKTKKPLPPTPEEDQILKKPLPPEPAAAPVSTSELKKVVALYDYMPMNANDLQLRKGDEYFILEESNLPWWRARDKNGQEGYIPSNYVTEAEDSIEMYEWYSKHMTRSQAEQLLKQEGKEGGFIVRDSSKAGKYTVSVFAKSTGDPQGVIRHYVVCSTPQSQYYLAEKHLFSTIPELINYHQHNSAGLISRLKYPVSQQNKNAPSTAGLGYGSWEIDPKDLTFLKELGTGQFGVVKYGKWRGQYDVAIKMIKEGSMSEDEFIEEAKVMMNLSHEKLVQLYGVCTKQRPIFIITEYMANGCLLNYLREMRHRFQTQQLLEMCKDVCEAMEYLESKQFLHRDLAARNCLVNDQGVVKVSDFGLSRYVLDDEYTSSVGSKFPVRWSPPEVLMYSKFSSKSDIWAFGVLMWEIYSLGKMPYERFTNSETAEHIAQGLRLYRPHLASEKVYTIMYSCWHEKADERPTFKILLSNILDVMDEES
Settings: not given
`O=C(Nc1cccnc1)Nc1cccc(C2CCCN(c3ncnc4[nH]ccc34)C2)c1` (stereo not drawn) [Cmpd 30, 1-(3-(1-(7H-pyrrolo[2,3-d]pyrimidin-4-yl)piperidin-3-yl)phenyl)-3-(pyridin-3-yl)urea] registered an IC50 of 1000 to 10000 nM.
Still for that read-out and setting: then `O=C(Nc1ccc(F)cc1)Nc1cccc(C2CCCN(c3ncnc4[nH]ccc34)C2)c1` (stereo not drawn) [compound 185], with 1000 to 10000 nM.
Take `Nc1ncnc(N2CCC(F)C(N3CCCC(Nc4cc(F)cc(Cl)c4)C3=O)C2)c1F` (stereo not drawn) [compound 340, 1′-(6-Amino-5-fluoropyrimidin-4-yl)-3-(3-chloro-5-fluorophenylamino)-4′-fluoro-1,3′-bipiperidin-2-one]: the IC50 is 100 to 999 nM.
`O=C(CCc1ccccc1)Nc1cccc(C2CCCN(c3ncnc4[nH]ccc34)C2)c1` (stereo not drawn) [Cmpd 23, N-(3-(1-(7H-pyrrolo[2,3-d]pyrimidin-4-yl)piperidin-3-yl)phenyl)-3-phenylpropanamide] returned a half-maximal inhibitory concentration (IC50) of 1000 to 10000 nM.
`O=C1[C@H](Nc2ccccc2)CCN1[C@@H]1CCCN(c2ncnc3[nH]ccc23)C1` [compound 273] had an IC50 of 100 to 999 nM.
`O=C(Nc1cccc(C2CCCN(c3ncnc4[nH]ccc34)C2)c1)[C@H](O)c1ccccc1` (stereo partly drawn) [Cmpd 19, (2R)—N-(3-(1-(7H-pyrrolo[2,3-d]pyrimidin-4-yl)piperidin-3-yl)phenyl)-2-hydroxy-2-phenylacetamide] displayed an IC50 of 1000 to 10000 nM.
`O=C(Nc1cccc(C2CCCN(c3ncnc4[nH]ccc34)C2)c1)Nc1cccnc1O` (stereo not drawn) [compound 198] showed an IC50 of 1000 to 10000 nM.
On the same count and under the same terms, then `O=C(Nc1cccc(C2CCCN(c3ncnc4[nH]ccc34)C2)c1)Nc1ccccc1N1CCC(F)(F)C1` (stereo not drawn) [compound 168], with 100 to 999 nM; and `CO[C@@H]1CCN(c2ccccc2NC(=O)Nc2cccc(C3CCCN(c4ncnc5[nH]ccc45)C3)c2)C1` (stereo partly drawn) [compound 176], with 100 to 999 nM.
On the same count and under the same terms, then `Nc1ncnc(N2CCCC(c3cccc(NC(=O)Nc4ccccc4)c3)C2)c1Br` (stereo not drawn) [Cmpd 101, 1-(3-(1-(6-Amino-5-bromopyrimidin-4-yl)piperidin-3-yl)phenyl)-3-phenylurea], with 1000 to 10000 nM; and `CC(C)(C)CNC(=O)Nc1cccc(C2CCCN(c3ncnc4[nH]ccc34)C2)c1` (stereo not drawn) [compound 196], with 1000 to 10000 nM; and `O=C(Nc1cccc(C2CCCN(c3ncnc4[nH]ccc34)C2)c1)Nc1cc(F)ccc1N1CCCC1` (stereo not drawn) [compound 160], with 100 to 999 nM.
On the same count and under the same terms, to `O=C(Nc1cccc(C2CCCN(c3ncnc4[nH]ccc34)C2)c1)N1CCCCC1` (stereo not drawn) [Cmpd 53, N-(3-(1-(7H-pyrrolo[2,3-d]pyrimidin-4-yl)piperidin-3-yl)phenyl)piperidine-1-carboxamide] belongs 1000 to 10000 nM; to `O=C(Nc1cc(C2CCCN(c3ncnc4[nH]ccc34)C2)ccc1OC(F)(F)F)c1ccccc1Cl` (stereo not drawn) [Cmpd 86, N-(5-(1-(7H-pyrrolo[2,3-d]pyrimidin-4-yl)piperidin-3-yl)-2-(trifluoromethoxy)phenyl)-2-chlorobenzamide], 100 to 999 nM; to `CCC(CC)CNC(=O)Nc1cccc(C2CCCN(c3ncnc4[nH]ccc34)C2)c1` (stereo not drawn) [compound 180], 100 to 999 nM.
The compound `c1ccc(Nc2nc3ccc(C4CCCN(c5ncnc6[nH]ccc56)C4)cc3[nH]2)cc1` (stereo not drawn) [compound 105, 6-(1-(7H-pyrrolo[2,3-d]pyrimidin-4-yl)piperidin-3-yl)-N-phenyl-1H-benzo[d]imidazol-2-amine] showed a concentration for half-maximal inhibition (IC50) of 1000 to 10000 nM.
Same read-out and setting: to `O=C(Nc1cccc(C2CCCN(c3ncnc4[nH]ccc34)C2)c1)c1ccccc1` (stereo not drawn) [Cmpd 2, N-(3-(1-(7H-pyrrolo[2,3-d]pyrimidin-4-yl)piperidin-3-yl)phenyl)benzamide] belongs 1000 to 10000 nM.
The compound `O=C(Nc1cccc(C2CCCN(c3ncnc4[nH]ccc34)C2)c1)N[C@@H](CO)C1CCCCC1` (stereo partly drawn) [compound 213] showed an IC50 of 1000 to 10000 nM.
The same measure, in the same setting: to `O=C(Nc1cccc(Cl)c1)Nc1cccc(C2CCCN(c3ncnc4[nH]ccc34)C2)c1` (stereo not drawn) [Cmpd 26, 1-(3-(1-(7H-pyrrolo[2,3-d]pyrimidin-4-yl)piperidin-3-yl)phenyl)-3-(3-chlorophenyl)urea] belongs 1000 to 10000 nM.

The assay is the same for the next values; noted with them: read-out: IC50 (10 uM ATP).
For `Nc1ncnc(N2CCC[C@@H](N3CCC[C@@H](Nc4cc(Cl)cc(C(F)(F)F)c4)C3=O)C2)c1F` [compound 311, (3R,3′R)-1′-(6-Amino-5-fluoropyrimidin-4-yl)-3-(3-chloro-5-(trifluoromethyl)phenylamino)-1,3′-bipiperidin-2-one], the IC50 was < 100 nM.

The same assay, now with this note: read-out: IC50 (10 uM ATP); 10 uM ATP; in vitro Btk kinase assay, Example 41.
With `COc1c(N)ncnc1N1CCCC(c2cccc(NC(=O)Nc3ccccc3)c2)C1` (stereo not drawn) [Cmpd 97, 1-(3-(1-(6-Amino-5-methoxypyrimidin-4-yl)piperidin-3-yl)phenyl)-3-phenylurea], the IC50 is > 10000 nM.
Regarding `CC(=O)N1CCN(c2ncnc3[nH]ccc23)CC1c1cccc(NC(=O)Nc2ccccc2)c1` (stereo not drawn) [compound 127, 1-(3-(1-acetyl-4-(7H-pyrrolo[2,3-d]pyrimidin-4-yl)piperazin-2-yl)phenyl)-3-phenylurea], the IC50 was > 10000 nM.
Same read-out and setting: to `O=C(Nc1csc(C2CCCN(c3ncnc4[nH]ccc34)C2)n1)Nc1ccccc1N1CCCC1` (stereo not drawn) [compound 107, 1-(2-(1-(7H-pyrrolo[2,3-d]pyrimidin-4-yl)piperidin-3-yl)thiazol-4-yl)-3-(2-(pyrrolidin-1-yl)phenyl)urea] belongs < 100 nM.
Take `O=C(NCC1CCOCC1)Nc1cccc(C2CCCN(c3ncnc4[nH]ccc34)C2)c1` (stereo not drawn) [compound 223]: the IC50 is > 10000 nM.
Same read-out and setting: then `Cc1cc(NC(=O)Nc2cccc(C3CCCN(c4ncnc5[nH]ccc45)C3)c2)n(CCN(C)C)n1` (stereo not drawn) [compound 230], with > 10000 nM; and `CCOC(=O)c1ccccc1NC1CCCN([C@@H]2CCCN(c3ncnc(N)c3F)C2)C1=O` (stereo partly drawn) [compound 295, Ethyl-2-((3′R)-1′-(6-amino-5-fluoropyrimidin-4-yl)-2-oxo-1,3′-bipiperidin-3-ylamino) benzoate], with > 10000 nM.
Same read-out and setting: then `O=C1C(NC2CCCCC2)CCCN1[C@@H]1CCCN(c2ncnc3[nH]ccc23)C1` (stereo partly drawn) [compound 304, (3′R)-3-(Cyclohexylamino)-1′-(7H-pyrrolo[2,3-d]pyrimidin-4-yl)-1,3′-bipiperidin-2-one], with > 10000 nM; and `O=C1C(Nc2cc(Cl)cc(Cl)c2)CCCN1[C@@H]1CCCN(c2ncnc3[nH]ccc23)C1` (stereo partly drawn) [compound 276, (3′R)-3-(3,5-Dichloro-phenylamino)-1′-(7H-pyrrolo[2,3-d]pyrimidin-4-yl)-1,3′-bipiperidin-2-one], with < 100 nM.
`Cn1ccc2c(N3CCCC(c4cccc(NC(=O)Nc5ccccc5)c4)C3)ncnc21` (stereo not drawn) [Cmpd 93, 1-(3-(1-(7-methyl-7H-pyrrolo[2,3-d]pyrimidin-4-yl)piperidin-3-yl)phenyl)-3-phenylurea]: the IC50 is > 10000 nM.
On the same count and under the same terms, to `Nc1ncnc(N2CC[C@@H](O)[C@H](N3CCC[C@@H](Nc4cc(Cl)cc(Cl)c4)C3=O)C2)c1F` [compound 327, trans (3R)-1′-(6-Amino-5-fluoropyrimidin-4-yl)-3-(3,5-dichlorophenylamino)-4′-hydroxy-1,3′-bipiperidin-2-one] belongs < 100 nM; to `CC(C)c1cccc(C(C)C)c1NC(=O)Nc1cccc(C2CCCN(c3ncnc4[nH]ccc34)C2)c1` (stereo not drawn) [compound 154], < 100 nM; to `O=c1c(Nc2ccc(Cl)cc2)c(Nc2cccc(C3CCCN(c4ncnc5[nH]ccc45)C3)c2)c1=O` (stereo not drawn) [Cmpd 70, 3-(3-(1-(7H-pyrrolo[2,3-d]pyrimidin-4-yl)piperidin-3-yl)phenylamino)-4-(4-chlorophenylamino)cyclobut-3-ene-1,2-dione], > 10000 nM.
Same read-out and setting: then `O=C(Nc1cccc(C2CCCN(c3ncnc4[nH]ccc34)C2)c1)c1ccncc1` (stereo not drawn) [compound 11, N-(3-(1-(7H-pyrrolo[2,3-d]pyrimidin-4-yl)piperidin-3-yl)phenyl)isonicotinamide], with > 10000 nM; and `Nc1ncnc(N2CCC[C@@H](N3CCCC(Nc4cc(C(F)(F)F)cc(C(F)(F)F)c4)C3=O)C2)c1F` (stereo partly drawn) [compound 310, (3′R)-1′-(6-Amino-5-fluoropyrimidin-4-yl)-3-(3,5-bis(trifluoromethyl)phenylamino)-1,3′-bipiperidin-2-one], with < 100 nM.
With `O=C(Nc1ccccc1)Nc1cc(C2CCCN(c3ncnc4[nH]ccc34)C2)cc(C(F)(F)F)c1` (stereo not drawn) [Cmpd 83, 1-(3-(1-(7H-pyrrolo[2,3-d]pyrimidin-4-yl)piperidin-3-yl)-5-(trifluoromethyl)phenyl)-3-phenylurea], the half-inhibitory concentration (IC50) is > 10000 nM.
As to `O=C(Nc1cccc(C2CCCN(c3ncnc4[nH]ccc34)C2)c1)Nc1cccc2[nH]ncc12` (stereo not drawn) [compound 226], the 50% inhibitory concentration (IC50) is > 10000 nM.
On the same count and under the same terms, to `Nc1ncnc(N2CC[C@H](F)[C@H](N3CCC[C@H](Nc4cc(F)cc(Cl)c4)C3=O)C2)c1F` [compound 343, (3S,3′R,4′S)-1′-(6-amino-5-fluoropyrimidin-4-yl)-3-(3-chloro-5-fluorophenylamino)-4′-fluoro-1,3′-bipiperidin-2-one] belongs > 10000 nM; to `O=C(CNc1ccccc1)Nc1cccc(C2CCCN(c3ncnc4[nH]ccc34)C2)c1` (stereo not drawn) [Cmpd 17, N-(3-(1-(7H-pyrrolo[2,3-d]pyrimidin-4-yl)piperidin-3-yl)phenyl)-2-(phenylamino) acetamide], > 10000 nM.
As for `Cc1ccc(C2CCCN(c3ncnc4[nH]ccc34)C2)cc1NC(=O)c1ccccc1` (stereo not drawn) [Cmpd 82, N-(5-(1-(7H-pyrrolo[2,3-d]pyrimidin-4-yl)piperidin-3-yl)-2-methylphenyl)benzamide], the IC50 is > 10000 nM.
Consider `Nc1ncnc(N2CCC[C@@H](N3CCCC(NC4CCC(F)(F)CC4)C3=O)C2)c1F` (stereo partly drawn) [compound 294, (3′R)-1′-(6-Amino-5-fluoropyrimidin-4-yl)-3-(4,4-difluorocyclohexylamino)-1,3′-bipiperidin-2-one], for which the IC50 was > 10000 nM.
Still for that read-out and setting: to `CC(C)(C)CNC1CCCN([C@@H]2CCCN(c3ncnc(N)c3F)C2)C1=O` (stereo partly drawn) [compound 292, (3′R)-1′-(6-Amino-5-fluoropyrimidin-4-yl)-3-(neopentylamino)-1,3′-bipiperidin-2-one] belongs > 10000 nM.
Take `O=C(Nc1cccc(C2CCCN(c3ncnc4[nH]ccc34)C2)c1)NC1CCNC1` (stereo not drawn) [compound 239]: the IC50 is > 10000 nM.

The values above are taken from US9790229B2, “Bruton's tyrosine kinase inhibitors” (priority 2009, dated 2017).
